Laboratory results from article PMC8400920, “Metabolism of Diterpenoids Derived from the Bark of Cinnamomum cassia in Human Liver Microsomes” (Pharmaceutics, 2021).
Where a name gives a salt, the structure may show the parent alone.

Experiments:
[1] = system: CYPs; assay: Metabolism of AHC in HLMs with SKF-525A, a nonselective CYP inhibitor; assay type: in vitro ADME, human; settings: 10 µM AHC, 1 mg/mL HLMs, NGS, 60 min
Protocol: To investigate CYP-mediated metabolism, 10 µM AHC was mixed with 1 mg/mL pooled HLMs and 0.1 M potassium phosphate buffer (pH 7.4). Then, SKF-525A, a general inhibitor of CYPs, was added at concentrations of 0.5, 1, and 5 mM. The reactions were initiated with the addition of NGS at […] for 60 min. After 60 min, the reactions were terminated by adding 400 µL of 100% acetonitrile. The mixtures were then centrifuged at 15,700× g for 10 min. Subsequently, 550 µL of supernatant was dried in a vacuum concentrator. The residue was dissolved in 100 µL of 20% MeOH (0.1% formic acid), and 5 µL of this sample was injected into a C18 column for LC–MS/MS analysis.
To confirm the metabolism of AHC by CYP enzymes, AHC was incubated in HLMs with SKF-525A, i.e., a nonspecific CYP inhibitor (Figure S7). […] Consequently, as the metabolism of AHC was inhibited by SKF-525A treatment, the production of all metabolites was reduced in an SKF-525A concentration-dependent manner.

[2] = system: human liver microsomes (HLMs); assay: Metabolic stability of seven diterpenoids in human liver microsomes; assay type: in vitro ADME; settings: 10 µM, 0.5 mg/mL HLMs, NGS, 37 °C
Protocol: For metabolism profiling, 10 µM of each of the seven compounds isolated from C. cassia bark was added to 0.5 mg/mL of pooled HLMs and 0.1 M potassium phosphate buffer (pH 7.4). The HLMs were then preincubated at 37 °C for 1 min. After adding NGS, the reaction mixture was incubated at 37 °C for 60 min. After the 60 min incubation period, 50 µL of the reaction mixture was transferred to a new tube, and 50 µL of 100% ACN containing 0.1% formic acid and tolbutamide (internal standard) was added to terminate the reaction. The mixture was then vortexed, followed by centrifugation at 15,700× g (13,000 rpm) for 10 min (Eppendorf AG, Hamburg, Germany). Finally, 90 µL of the supernatant was transferred to a vial and injected into a C18 column for LC–MS/MS analysis.
The metabolism screening of the seven compounds was performed using an HPLC system (Thermo Fisher Scientific, Bremen, Germany) equipped with an HPG-3200SD standard binary pump, a WPS-3000 TRS analytical autosampler, and a TCC-3000 SD column compartment. The HPLC system was coupled with an HR-MS (Q-Exactive Focus Quadrupole-Orbitrap MS; Thermo Fisher Scientific, Waltham, MA, USA) at the Mass Spectrometry Convergence Research Center. The full MS resolution and scan ranges were 70,000 and 60–900 m/z, respectively. The MS/MS resolution was 35,000. The mass spectra were obtained in negative ion electrospray mode. A heated electrospray ionization (HESI-II) probe was used as an ion generator, with nitrogen as the sheath gas at 35 aux units and auxiliary gas at 12 aux units. The mass spectrometer was operated in negative ionization mode. The other parameters were as follows: spray voltage, 3.5 kV; capillary temperature, 320 °C; S-lens radio frequency level, 50; and aux gas heater temperature, 400 °C.
The mobile phase consisted of 100% water with 0.1% formic acid (mobile phase A) and 100% ACN with 0.1% formic acid (mobile phase B). For metabolic stability, the gradient conditions were set as follows: 5% of B at 0.5–2.0 min, 5–50% of B at 2.0–4.5 min, 50% of B at 4.5–7.0 min, and 50–5% of B at 7.0–10.0 min at 40 °C with a flow rate of 0.2 mL/min. For metabolite identification, the gradient conditions were as follows: 10% of B at 0–5 min, 10–55% of B at 5–15 min, 55% of B at 15–23 min, and 55–10% of B at 23–30 min with a flow rate of 0.25 mL/min. Chromatographic separation was performed using a Kinetex C18 column (150 × 2.1 mm, 2.6 μm, XB-C18 100 Å, S/No: H19-070128; Phenomenex, Torrance, CA, USA). Data were analyzed using Xcalibur version 4.0 software (Thermo Fisher Scientific, Waltham, MA, USA).
To confirm their metabolic stability, seven diterpenoids (AHC, anhydrocinnzeylanol, cinncassiol A, cinncassiol B, cinnzeylanol, cinnzeylanone, and cinnzeylanine) derived from the bark of C. cassia were incubated with HLMs in the presence of the NGS for 60 min (Figure 1B). The metabolic stability of each compound was determined according to the ratio of the peak area at 60 min to that at 0 min. […] Therefore, we identified the metabolites of AHC produced in HLMs.

Row | SMILES | effect of SKF-525A on the metabolism of AHC in HLMs [1] | decrease of stability in HLMs (peak area 60 min vs 0 min) [2] | fraction metabolized in HLMs (metabolized by) ([2]; 60 min)
1 | CCCC(C(=O)OCCN(CC)CC)(c1ccccc1)c1ccccc1 [SKF-525A, proadifen hydrochloride, reference compound] | inhibited |  | 
2 | CC1CCC2(O)C3(C)CC4(O)OC2(C1=O)C1(O)C3(O)CC(O)(C(C)C)C41C (stereo not shown) [cinnzeylanone] |  | approximately 20% | 
3 | CC1=C(C(C)C)C[C@@]2(O)[C@@]3(C)CC(=O)O[C@@]4([C@H](O)[C@@H](C)CC[C@]34O)[C@@]12O [anhydrocinnzeylanol] |  | approximately 20% | 20%
